What was measured:
HDAC5 = HDAC5 (Homo sapiens, UniProt Q9UQL6); assay: In vitro HDAC enzymatic assay (Reaction Biology); type: biochemical; set-up: purchased Reaction Biology (Devault, PA); conditions: dose response, FIG. 2A-2B
HDAC9 = target: T1, HDAC9 (Homo sapiens, UniProt Q9UKV0); assay: In vitro HDAC enzymatic assay (Reaction Biology); type: biochemical; conditions: dose response, FIG. 2A-2B
T1 construct: purchased Reaction Biology (Devault, PA)

HDAC7 = target: T2, HDAC7 (Homo sapiens, UniProt Q8WUI4); assay: In vitro HDAC enzymatic assay (Reaction Biology); type: biochemical; set-up: purchased Reaction Biology (Devault, PA); conditions: dose response, FIG. 2A-2B
T2 sequence (Q8WUI4 1-952): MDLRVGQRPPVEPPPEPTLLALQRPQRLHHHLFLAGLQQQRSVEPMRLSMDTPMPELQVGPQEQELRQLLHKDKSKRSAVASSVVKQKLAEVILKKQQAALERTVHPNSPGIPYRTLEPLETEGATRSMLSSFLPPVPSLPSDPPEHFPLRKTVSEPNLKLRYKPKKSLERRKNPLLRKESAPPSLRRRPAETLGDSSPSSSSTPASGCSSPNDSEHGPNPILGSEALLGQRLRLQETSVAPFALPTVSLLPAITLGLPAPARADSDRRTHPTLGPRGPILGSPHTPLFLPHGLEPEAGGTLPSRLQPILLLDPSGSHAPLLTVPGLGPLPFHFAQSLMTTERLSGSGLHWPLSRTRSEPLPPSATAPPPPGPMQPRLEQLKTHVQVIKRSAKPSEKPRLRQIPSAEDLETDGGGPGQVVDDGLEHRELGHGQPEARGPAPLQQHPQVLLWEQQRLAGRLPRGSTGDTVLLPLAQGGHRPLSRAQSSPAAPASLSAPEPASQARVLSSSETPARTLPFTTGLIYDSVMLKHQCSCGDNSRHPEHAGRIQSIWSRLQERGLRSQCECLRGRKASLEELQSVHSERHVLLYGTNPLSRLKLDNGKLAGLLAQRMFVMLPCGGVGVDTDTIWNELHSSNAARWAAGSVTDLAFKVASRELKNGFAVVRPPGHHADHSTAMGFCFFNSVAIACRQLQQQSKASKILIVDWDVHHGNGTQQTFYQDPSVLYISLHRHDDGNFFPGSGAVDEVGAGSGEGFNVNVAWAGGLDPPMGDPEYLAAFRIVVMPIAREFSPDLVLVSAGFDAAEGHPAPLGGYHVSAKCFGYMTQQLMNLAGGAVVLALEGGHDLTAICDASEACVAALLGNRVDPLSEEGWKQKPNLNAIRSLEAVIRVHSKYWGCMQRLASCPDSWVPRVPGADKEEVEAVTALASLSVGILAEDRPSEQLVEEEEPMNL

HDAC4 = HDAC4 (Homo sapiens, UniProt P56524); assay: In vitro HDAC enzymatic assay (Reaction Biology); type: biochemical; set-up: purchased Reaction Biology (Devault, PA); conditions: dose response, FIG. 2A-2B
CRBN = target: T3, CRBN (Homo sapiens, UniProt Q96SW2); assay: Cellular CRBN engagement assay (competition with dBET6, BRD4BD2-eGFP reporter); type: cell-based; conditions: FIG. 1; for cell permeability (from cellular CRBN engagement): Flp-In 293 reporter cells; for IC50: competition with 100 nM dBET6, 5 h, Flp-In 293 cells expressing BRD4BD2-eGFP and mCherry
T3 construct: endogenous in cells; host or cells: Flp-In 293 cells stably expressing BRD4BD2-eGFP and mCherry
Description: BRD4BD2 was subcloned into mammalian pcDNA5/FRT Vector (Ampicillin and Hygromycin B resistant) modified to contain MCS-eGFP-P2A-mCherry. Stable cell lines expressing eGFP-protein fusion and mCherry reporter were generated using Flp-In™ 293 system. Plasmid (0.3 μg) and pOG44 (4.7 μg) DNA were preincubated in 100 μL of Opti-MEM™ I (Gibco™, Life Technologies™) media containing 0.05 mg/ml Lipofectamine 2000 (Invitrogen™) for 20 min and added to Flp-In™ 293 cells containing 1.9 ml of Dulbecco's Modified Eagle Medium (DMEM) media (Gibco™, Life Technologies™) per well in a 6-well plate format (Falcon, 353046). Cells were propagated after 48 h and transferred into a 10 cm^2 plate (Corning®, 430165) in DMEM media containing 50 μg/ml of Hygromycin B (Invitrogen™, REF 10687010) as a selection marker. Following 2-3 passage cycles, FACS (FACSAria™ II, BD) was used to enrich for cells expressing eGFP and mCherry.
Stable cells expressing the BRD4BD2-eGFP protein fusion and the mCherry reporter were seeded at a density of 1000-4000 cells/well in a 384-well plate with 50 μL per well of FluoroBrite™ DMEM media (Thermo Fisher Scientific, A18967) supplemented with 10% FBS a day before compound treatment. Compounds and 100 nM dBET6 were dispensed using a D300e Digital Dispenser (HP), normalized to 0.5% DMSO, and incubated with the cells for 5 h. The assay plate was imaged immediately using an acument High Content Imager (TTP Labtech) with 488 nm and 561 nm lasers in a […] grid per well format. The resulting images were analyzed using CellProfiler™ (Carpenter et al., Genome Biol. 7(10):R100 (2006)). A series of image analysis steps (an ‘image analysis pipeline’) was constructed. First, the red and green channels were aligned and cropped to target the middle of each well (to avoid analysis of the heavily clumped cells at the edges). A background illumination function was calculated for both red and green channels of each well individually and subtracted to correct for illumination variations across the 384-well plate from various sources of error. An additional step was then applied to the green channel to suppress the analysis of large auto fluorescent artifacts and enhance the analysis of cell specific fluorescence by way of selecting for objects under a given size (30 A.U.) and with a given shape (speckles). mCherry-positive cells were then identified in the red channel by filtering for objects 8-60 pixels in diameter and by using intensity to distinguish between clumped objects. […] The fraction of GFP-positive cells/mCherry-positive cells in each well was then calculated, and the green and red images were rescaled for visualization. […]

| SMILES | inhibition of HDAC5 (HDAC5) | inhibition of HDAC9 (HDAC9) | inhibition of HDAC7 (HDAC7) | inhibition of HDAC4 (HDAC4) | cell permeability (from cellular CRBN engagement) (CRBN) | IC50 (CRBN) [µM] |
| --- | --- | --- | --- | --- | --- | --- |
| CCN(CCNc1cccc2c1C(=O)N(C1CCC(=O)NC1=O)C2=O)C[C@@H](C)NC(=O)c1ccc(-c2noc(C(F)(F)F)n2)cc1 (stereo partly drawn) [Compound 16, N-((2R)-1-((2-((2-(2,6-dioxopiperidin-3-yl)-1,3-dioxoisoindolin-4-yl)amino)ethyl)(ethyl)amino)propan-2-yl)-4-(5-(trifluoromethyl)-1,2,4-oxadiazol-3-yl)benzamide] | inhibited | inhibited | inhibited | inhibited | cell permeable | 6.98 |
| O=C1CCC(N2C(=O)c3cccc(NCCCCCCN4CCC(CNC(=O)c5cccc(-c6noc(C(F)(F)F)n6)c5)(c5nc(-c6ccccc6)cs5)CC4)c3C2=O)C(=O)N1 (stereo not drawn) [Compound 1] | inhibited | inhibited | inhibited | inhibited | cell permeable | 0.14 |
